Results: ChEMBL document CHEMBL3044814, “Seasonal changes in chemical composition of epicuticular waxes from the leaves of Baccharis linearis” (1999)
In brackets after ≈: the same amount, converted by molar mass.

How the values were obtained:
Artemia salina = test: Toxicity against Artemia salina (brine shrimp); assay type: functional
Spodoptera littoralis = test: Antifeedant activity against fifth-instar larvae of Spodoptera littoralis at 10 ug/cm'2 by disk-choice assay; assay type: functional

Row | Structure (SMILES) | LC50 (Artemia salina) [µg/mL] | FR50 (Spodoptera littoralis)
1 | CC(=O)Oc1ccc(/C=C/C(=O)O)cc1CC=C(C)C | < 50 | –
2 | CC(=O)OC/C=C(/CC[C@@]1(C)[C@H](C)CC[C@@]2(CO)C(COC(C)=O)=CCC[C@@H]21)COC(C)=O | > 100 | 0.99
3 | COc1cc(-c2oc3cc(O)cc(O)c3c(=O)c2OC)ccc1O [3,3'-O-DIMETHYLQUERCETIN] | ≤ 10 | –
4 | COc1c(-c2ccc(O)c(O)c2)oc2cc(O)cc(O)c2c1=O [3-O-METHYLQUERCETIN] | 10 (≈ 31.6 µM) | –
5 | C=C(COC(C)=O)C1Cc2cc(O)c(C(C)=O)cc2O1 (centres undefined) [ACETYLATED DIHYDROBENZOFURAN] | ≤ 10 | 0.75
6 | CC1(C)CC[C@]2(CO)CC[C@]3(C)C(=CC[C@@H]4[C@@]5(C)CC[C@H](O)C(C)(C)[C@@H]5CC[C@]43C)[C@@H]2C1 [ERYTHRODIOL] | 50 (≈ 113 µM) | 0.88
7 | COc1c(-c2ccc(O)cc2)oc2cc(O)cc(O)c2c1=O [ISOKAEMPFERIDE] | ≤ 10 | –
8 | CCCC#CC#C/C=C/C(=O)OC [LACHNOPHYLLUM ESTER] | 5 (≈ 28.4 µM) | 0.31
9 | CC1(C)CC[C@]2(C(=O)O)CC[C@]3(C)C(=CC[C@@H]4[C@@]5(C)C[C@@H](O)[C@H](O)C(C)(C)[C@@H]5CC[C@]43C)[C@@H]2C1 [MASLINIC ACID] | 20.2 (≈ 42.7 µM) | 1.34
10 | CC1(C)CC[C@]2(C(=O)O)CC[C@]3(C)C(=CC[C@@H]4[C@@]5(C)CC[C@H](O)C(C)(C)[C@@H]5CC[C@]43C)[C@@H]2C1 [OLEANOLIC_ACID] | 10 (≈ 21.9 µM) | 1.34
11 | C=C1CC[C@@H]2[C@H]([C@H]3[C@H]1CC[C@]3(C)O)C2(C)C [SPATHULENOL] | < 3 | –
12 | COC(=O)/C=C/c1ccc2c(c1)C=CC(C)(C)O2 [WERNERIACHROMENE] | < 3 | 0.2
